Data on four compounds can be found in patent publication US7001983B1, “Antipathogenic synthetic peptides and compositions comprising them” (priority 1997, dated 2006).

SMILES strings stand for the structures. Square brackets hold non-standard residues; d marks the D form. Peptide text beside a SMILES is read from it. Bounds are passed on as bounds.

One data set deals with Escherichia coli D21. The data set is classed as cell-based. The conditions noted are these: for Minimal Inhibitory Concentration E. coli (D21): 100% inhibition of growth after 18–20 h.
Data set [1] concerns Micrococcus Iuteus ATCC 9341. The data set can be described thus: Antibacterial activity (MIC), growth inhibition in LB medium. The class given is cell-based, Micrococcus luteus. The conditions noted are these: 100% inhibition of growth after 18–20 h. How it is done: (viii) Antibacterial activity of the peptides. The antibacterial activity of the diastereomers was examined in sterile 96-well plates (Nunc F96 microtiter plates) in a final volume of 100 μL as follows: Aliquots (50 μl) of a suspension containing bacteria at a concentration of 10^6 Colony-Forming Units (CFU)/ml LB (Lauria broth) medium were added to 50 μL of water or 66% pooled normal human serum in PBS, containing the peptide in 2-fold serial dilutions. Growth inhibition was determined by measuring the absorbance at 492 nm with a Microplate autoreader E1309 (Bio-tek Instruments), following incubation for 18–20 h at 37° C. […] The bacteria used were: Escherichia coli D21, Pseudomonas aeruginosa ATCC 27853, Acinetobacter calcoaceticus Ac11, Salmonella typhimurium LT2, Bacillus megaterium Bm11, Micrococcus Iuteus ATCC 9341, Bacillus subtilis ATCC 6051.

Data set [2] concerns Acinetobacter calcoaceticus Ac11. The class given is cell-based. Particulars: 100% inhibition of growth after 18–20 h.
Another data set deals with Bacillus megaterium Bm11. The class given is cell-based. Particulars: 100% inhibition of growth after 18–20 h.
Data set [3] concerns human red blood cells (hRBC). Briefly: Hemolysis of human red blood cells. The class given is cell-based. How it is done:
(ix) Hemolysis of human red blood cells. The peptides were tested for their hemolytic activities against human red blood cells (hRBC). Fresh hRBC with EDTA were rinsed 3 times with PBS (35 mM phosphate buffer/0.15 M NaCl, pH 7.3) by centrifugation for 10 min at 800 g and resuspended in PBS. Peptides dissolved in PBS were then added to 50 μL of a solution of the stock hRBC in PBS to reach a final volume of 100 μL (final erythrocyte concentration, 5% v/v). The resulting suspension was incubated under agitation for 30 min at 37° C. The samples were then centrifuged at 800 g for 10 min. Release of hemoglobin was monitored by measuring the absorbance of the supernatant at 540 nm. Controls for zero hemolysis (blank) and 100% hemolysis consisted of hRBC suspended in PBS and Triton 1%, respectively.

Data set [4] relates to Pseudomonas aeruginosa ATCC 27853. The conditions noted are these: for Minimal Inhibitory Concentration P. aeruginosa (ATCC 27853): 100% inhibition of growth after 18–20 h. How it is done: (viii) Antibacterial activity of the peptides.
Antibacterial activity of the mixtures was determined as described in Experimental procedures, section (xii).

The subject of data set [5] is Bacillus subtilis ATCC 6051. The class given is cell-based. Particulars: 100% inhibition of growth after 18–20 h.

Consider `CC[C@@H](C)[C@@H](NC(=O)[C@H](CC(C)C)NC(=O)[C@H](C)NC(=O)[C@@H]1CCCN1C(=O)[C@H](CC(C)C)NC(=O)CNC(=O)[C@@H](NC(=O)[C@@H](NC(=O)[C@H](CC(C)C)NC(=O)[C@H](NC(=O)[C@H](CCCCN)NC(=O)[C@H](CC(C)C)NC(=O)[C@H](NC(=O)[C@H](C)N)C(C)C)C(C)C)[C@@H](C)O)[C@@H](C)O)C(=O)N[C@@H](CO)C(=O)N[C@@H](Cc1c[nH]c2ccccc12)C(=O)N[C@H](C(=O)N[C@H](CCCCN)C(=O)N[C@@H](CCCNC(=N)N)C(=O)NCCN)[C@@H](C)CC` [Peptide 21, [D]-V^5V^8I^17K^21-[4-22]-TAmel], for which the “Minimal Inhibitory Concentration E. coli (D21)” value with Escherichia coli D21 was determined as 21 µM. Moreover, the “Minimal Inhibitory Concentration M. luteus (ATCC 9341)” value in data set [1] is 28 µM. In addition, the “Minimal Inhibitory Concentration A. calcoaceticus (Ac11)” value in data set [2] was 14 µM. Also, the “Minimal Inhibitory Concentration B. megaterium (Bm11)” value in the data set on Bacillus megaterium Bm11 came to 1.2 µM. The “% hemolysis at 50 μM peptide” value in data set [3] (hRBC, 50 μM peptide, 30 min at 37° C.) is recorded as 0%.
Consider `CC(C)C[C@H](NC(=O)[C@H](CC(C)C)NC(=O)[C@@H](CC(C)C)NC(=O)[C@@H](CC(C)C)NC(=O)[C@H](CC(C)C)NC(=O)[C@@H](N)CCCCN)C(=O)N[C@@H](CCCCN)C(=O)N[C@H](CC(C)C)C(=O)N[C@@H](CC(C)C)C(=O)N[C@H](CC(C)C)C(=O)N[C@@H](CC(C)C)C(=O)N[C@@H](CCCCN)C(N)=O` [Peptide 22, [D]-L^3,4,8,10-K3L9] (H-KL[dL][dL]LLK[dL]L[dL]LK-NH2), for which the “Minimal Inhibitory Concentration P. aeruginosa (ATCC 27853)” value in data set [4] is 125 µM. Besides, the “Minimal Inhibitory Concentration E. coli (D21)” value in the data set with Escherichia coli D21 was 9 µM. The “Minimal Inhibitory Concentration A. calcoaceticus (Ac11)” value in data set [2] was 20 µM. In the data set with Bacillus megaterium Bm11, the “Minimal Inhibitory Concentration B. megaterium (Bm11)” value turned out to be 0.7 µM. The “hemolytic activity in comparison to melittin (fold less)” value in data set [3] (hRBC dose response) is listed as over 60 fold. Further, the “% hemolysis at 100 μM” value in data set [3] (hRBC, 30 min at 37° C.) came out at 58%. For the same compound, the “Minimal Inhibitory Concentration B. subtilis (ATCC 6051)” value in data set [5] was 1.1 µM.
For the compound `CC(C)C[C@H](NC(=O)[C@H](CCCCN)NC(=O)[C@@H](CC(C)C)NC(=O)[C@@H](CC(C)C)NC(=O)[C@H](CC(C)C)NC(=O)[C@@H](N)CCCCN)C(=O)N[C@@H](CCCCN)C(=O)N[C@H](CC(C)C)C(=O)N[C@@H](CCCCN)C(=O)N[C@H](CC(C)C)C(=O)N[C@@H](CC(C)C)C(=O)N[C@@H](CCCCN)C(N)=O` [Peptide 24, [D]-L^3,4,8,10-K5L7] (H-KL[dL][dL]KLK[dL]K[dL]LK-NH2), the “Minimal Inhibitory Concentration P. aeruginosa (ATCC-27853) 0% Serum” value in data set [4] (0% Serum) stood at 10 µM. Besides, in data set [4] (33% pooled human serum), the “Minimal Inhibitory Concentration P. aeruginosa (ATCC-27853) 33% Serum” value is 10 µM. For the same compound, the “Minimal Inhibitory Concentration P. aeruginosa (ATCC 27853)” value in data set [4] was 10 µM. In addition, the “Minimal Inhibitory Concentration E. coli (D21) 0% Serum” value in the data set with Escherichia coli D21 (0% Serum) is 7 µM. Further, the “Minimal Inhibitory Concentration E. coli (D21) 33% Serum” value in the data set on Escherichia coli D21 (33% pooled human serum) was 7 µM. Also, the “Minimal Inhibitory Concentration E. coli (D21)” value with Escherichia coli D21 stood at 7 µM. The “Minimal Inhibitory Concentration A. calcoaceticus (Ac11)” value in data set [2] was 20 µM. Besides, the “Minimal Inhibitory Concentration B. megaterium (Bm11)” value in the data set on Bacillus megaterium Bm11 was found to be 0.25 µM. Besides, in data set [3] (hRBC, 30 min at 37° C.), the “% hemolysis at 100 μM” value is 0%. Also, the “Minimal Inhibitory Concentration B. subtilis (ATCC 6051)” value in data set [5] was 2 µM.
`CC(C)C[C@H](NC(=O)[C@H](CCCCN)NC(=O)[C@@H](CC(C)C)NC(=O)[C@@H](CC(C)C)NC(=O)[C@H](CCCCN)NC(=O)[C@@H](N)CCCCN)C(=O)N[C@@H](CCCCN)C(=O)N[C@H](CC(C)C)C(=O)N[C@@H](CCCCN)C(=O)N[C@H](CC(C)C)C(=O)N[C@@H](CCCCN)C(=O)N[C@@H](CCCCN)C(N)=O` [Peptide 25, [D]-L^3,4,8,10-K7L5] (H-KK[dL][dL]KLK[dL]K[dL]KK-NH2; N-terminus assumed): in data set [4], the “Minimal Inhibitory Concentration P. aeruginosa (ATCC 27853)” value was over 200 µM. For the same compound, the “Minimal Inhibitory Concentration E. coli (D21)” value in the data set with Escherichia coli D21 was 80 µM. Moreover, in data set [2], the “Minimal Inhibitory Concentration A. calcoaceticus (Ac11)” value is 200 µM. In addition, the “Minimal Inhibitory Concentration B. megaterium (Bm11)” value in the data set with Bacillus megaterium Bm11 came to 1 µM. For the same compound, in data set [3] (hRBC, 30 min at 37° C.), the “% hemolysis at 100 μM” value came to 0%. Also, the “Minimal Inhibitory Concentration B. subtilis (ATCC 6051)” value in data set [5] came to 100 µM.
